According to patent US20080312167A1, “4'' Amino Linked Macrolides Useful for the Treatment of Microbial Infections” (priority 2005, published 2008):

How the values were obtained:
Experiment in all cases: MIC, standard broth dilution method in microtitre
Format in all cases: cell-based
Enterococcus faecalis = test system: Enterococcus faecalis
Procedure: (§1) Using a standard broth dilution method in microtitre, compounds were tested for antibacterial activity.
(§2) The MIC (μg/ml) of test compounds against various organisms was determined including: Staphylococcus aureus, Streptococcus pneumoniae, Streptococcus pyogenes, Enterococcus faecalis, Haemophylus influenzae, Moraxella catarrhalis.

[1] = test system: sensitive Staphylococcus aureus
Procedure: as §1, §2

Moraxella catarrhalis = test system: Moraxella catarrhalis
Procedure: as §1, §2

Haemophylus influenzae = test system: Haemophylus influenzae
Procedure: as §1, §2

Molecule | MIC (Enterococcus faecalis) [µg/mL] | MIC [1] [µg/mL] | MIC (Moraxella catarrhalis) [µg/mL] | MIC (Haemophylus influenzae) [µg/mL]
CC[C@H]1OC(=O)[C@H](C)[C@@H](O[C@H]2C[C@@](C)(OC)[C@@H](NC(=O)CCOCCOCCCc3ccc4c(c3)c(=O)c(C(=O)O)cn4C3CC3)[C@H](C)O2)[C@H](C)[C@@H](O[C@@H]2O[C@H](C)C[C@H](N(C)C)[C@H]2O)[C@](C)(O)C[C@@H](C)CN(C)[C@H](C)[C@@H](O)[C@]1(C)O (single isomer, unassigned) [Example 8] | ≤ 0.125 | ≤ 0.5 | ≤ 2 | –
CC[C@H]1OC(=O)[C@H](C)[C@@H](O[C@H]2C[C@@](C)(OC)[C@@H](NC(=O)CCOCCOCCCc3ccc4c(c3)c(=O)c(C(=O)O)cn4CC)[C@H](C)O2)[C@H](C)[C@@H](O[C@@H]2O[C@H](C)C[C@H](N(C)C)[C@H]2O)[C@](C)(O)C[C@@H](C)CN(C)[C@H](C)[C@@H](O)[C@]1(C)O (single isomer, unassigned) [Example 7] | ≤ 0.125 | ≤ 0.5 | ≤ 2 | –
CC[C@H]1OC(=O)[C@H](C)[C@@H](O[C@H]2C[C@@](C)(OC)[C@H](NC(=O)CCOCCOCCCc3ccc4c(c3)c(=O)c(C(=O)O)cn4C3CC3)[C@H](C)O2)[C@H](C)[C@@H](O[C@@H]2O[C@H](C)C[C@H](N(C)C)[C@H]2O)[C@](C)(O)C[C@@H](C)CN(C)[C@H](C)[C@@H](O)[C@]1(C)O (single isomer, unassigned) [Example 9] | – | ≤ 0.5 | ≤ 2 | –
4″(S)—N-(3-{2-[2-(3-Carboxy-7-chloro-1-cyclopropyl-4-oxo-1,4-dihydro-quinolin-6-ylamino)-ethoxy]-ethoxy}-propionyl}-azithromycin [Example 3] | – | – | – | ≤ 0.125
CC[C@H]1OC(=O)[C@H](C)[C@@H](O[C@H]2C[C@@](C)(OC)[C@H](NC(=O)CCOCCOCCCc3ccc4c(c3)c(=O)c(C(=O)O)cn4CC)[C@H](C)O2)[C@H](C)[C@@H](O[C@@H]2O[C@H](C)C[C@H](N(C)C)[C@H]2O)[C@](C)(O)C[C@@H](C)CN(C)[C@H](C)[C@@H](O)[C@]1(C)O (single isomer, unassigned) [Example 4] | – | – | ≤ 2 | –
CC[C@H]1OC(=O)[C@H](C)[C@@H](O[C@H]2C[C@@](C)(OC)[C@H](NC(=O)CCOCCOCCCc3ccc4c(c3)c(=O)c(C(=O)O)cn4CCOC)[C@H](C)O2)[C@H](C)[C@@H](O[C@@H]2O[C@H](C)C[C@H](N(C)C)[C@H]2O)[C@](C)(O)C[C@@H](C)CN(C)[C@H](C)[C@@H](O)[C@]1(C)O (single isomer, unassigned) [Example 6] | – | ≤ 0.5 | ≤ 2 | –
